Data: ChEMBL document CHEMBL1201862, “PubChem BioAssay data set” (2004)
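Compound exposure: 48 hours, 5 concentrations, 96-well plates. GI50 marks 50% less growth.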 Active and inactive are the calls of the source. No stated cut-off is given here; in the data, active = GI50 up to about 1.1 µM and inactive = higher.

Legend:
Assay in all cases: NCI tumour cell line growth inhibition, 48 h
SK-MEL-2 = system: SK-MEL-2
NCI-H522 = system: NCI-H522
UACC-257 = system: UACC-257
K562 = system: K562
HCT-116 = system: HCT-116
DU-145 = system: DU-145
UACC-62 = system: UACC-62
SK-MEL-28 = system: SK-MEL-28
M14 = system: M14
PC-3 = system: PC-3
RXF 393 = system: RXF 393
HCC 2998 = system: HCC 2998
A549 = system: A549
COLO 205 = system: COLO 205
T47D = system: T47D
SK-OV-3 = system: SK-OV-3
EKVX = system: EKVX
HOP-62 = system: HOP-62
SR = system: SR
SF-295 = system: SF-295
NCI/ADR-RES = system: NCI/ADR-RES
MDA-MB-231 = system: MDA-MB-231
KM12 = system: KM12
OVCAR-3 = system: OVCAR-3
UO-31 = system: UO-31
SNB-19 = system: SNB-19
IGROV-1 = system: IGROV-1
ACHN = system: ACHN
HOP-92 = system: HOP-92
786-0 = system: 786-0
HT-29 = system: HT-29
CCRF-CEM = system: CCRF-CEM
U-251 = system: U-251
LOX IMVI = system: LOX IMVI
SK-MEL-5 = system: SK-MEL-5
MDA-N = system: MDA-N
OVCAR-4 = system: OVCAR-4
SF-539 = system: SF-539
OVCAR-5 = system: OVCAR-5
Malme-3M = system: Malme-3M
A498 = system: A498
NCI-H226 = system: NCI-H226
NCI-H23 = system: NCI-H23
SN12C = system: SN12C
HCT-15 = system: HCT-15
MCF7 = system: MCF7
OVCAR-8 = system: OVCAR-8
SW-620 = system: SW-620
SF-268 = system: SF-268
HL-60 = system: HL-60
SNB-75 = system: SNB-75
NCI-H460 = system: NCI-H460
MDA-MB-435 = system: MDA-MB-435
MOLT-4 = system: MOLT-4
CAKI-1 = system: CAKI-1
TK-10 = system: TK-10
RPMI-8226 = system: RPMI-8226

CC(C)CNC(=O)CCc1cccc2c1oc1c(CCN)cccc12
GI50 (SK-MEL-2): 18.5 µM (inactive) | GI50 (NCI-H522): 13.2 µM (inactive) | GI50 (UACC-257): 11.7 µM (inactive) | GI50 (K562): 1.98 µM (inactive) | GI50 (HCT-116): 9.93 µM (inactive) | GI50 (DU-145): 17.9 µM (inactive) | GI50 (UACC-62): 17.1 µM (inactive) | GI50 (SK-MEL-28): 11.5 µM (inactive) | GI50 (M14): 15.6 µM (inactive) | GI50 (PC-3): 13.4 µM (inactive) | GI50 (RXF 393): 16 µM (inactive) | GI50 (HCC 2998): 14.2 µM (inactive) | GI50 (A549): 18.5 µM (inactive) | GI50 (COLO 205): 5.86 µM (inactive) | GI50 (T47D): 13.7 µM (inactive) | GI50 (SK-OV-3): 17 µM (inactive) | GI50 (EKVX): 14.3 µM (inactive) | GI50 (HOP-62): 18.5 µM (inactive) | GI50 (SR): 8.43 µM (inactive) | GI50 (SF-295): 16.3 µM (inactive) | GI50 (NCI/ADR-RES): 18.7 µM (inactive) | GI50 (MDA-MB-231): 15 µM (inactive) | GI50 (KM12): 11.9 µM (inactive) | GI50 (OVCAR-3): 5.65 µM (inactive) | GI50 (UO-31): 12.4 µM (inactive) | GI50 (SNB-19): 4.35 µM (inactive) | GI50 (IGROV-1): 10.2 µM (inactive) | GI50 (ACHN): 12.8 µM (inactive) | GI50 (HOP-92): 5.7 µM (inactive) | GI50 (786-0): 12.4 µM (inactive) | GI50 (HT-29): 9.31 µM (inactive) | GI50 (CCRF-CEM): 3.9 µM (inactive) | GI50 (U-251): 5.85 µM (inactive) | GI50 (LOX IMVI): 12.5 µM (inactive) | GI50 (SK-MEL-5): 14.2 µM (inactive) | GI50 (MDA-N): 20.9 µM (inactive) | GI50 (OVCAR-4): 18 µM (inactive) | GI50 (SF-539): 16 µM (inactive) | GI50 (OVCAR-5): 15.1 µM (inactive) | GI50 (Malme-3M): 16.6 µM (inactive) | GI50 (A498): 15 µM (inactive) | GI50 (NCI-H226): 16.9 µM (inactive) | GI50 (NCI-H23): 12.5 µM (inactive) | GI50 (SN12C): 17.4 µM (inactive) | GI50 (HCT-15): 24.1 µM | GI50 (MCF7): 20.6 µM (inactive) | GI50 (OVCAR-8): 18.1 µM (inactive) | GI50 (SW-620): 12 µM (inactive) | GI50 (SF-268): 15 µM (inactive) | GI50 (HL-60): 2.53 µM (inactive) | GI50 (SNB-75): 5.62 µM (inactive) | GI50 (NCI-H460): 18.2 µM (inactive) | GI50 (MDA-MB-435): 12.2 µM (inactive) | GI50 (MOLT-4): 11.8 µM (inactive) | GI50 (CAKI-1): 12.9 µM (inactive)

NS(=O)(=O)c1ccc(/C=C/c2cccc(O)c2)cc1
GI50 (SK-MEL-2): 25.4 µM (inactive) | GI50 (UACC-257): 69.5 µM (inactive) | GI50 (HCT-116): 35.9 µM (inactive) | GI50 (DU-145): 47.8 µM (inactive) | GI50 (SK-MEL-28): 74.5 µM (inactive) | GI50 (M14): 55.6 µM (inactive) | GI50 (PC-3): 36.7 µM (inactive) | GI50 (RXF 393): > 100 µM (inactive) | GI50 (HCC 2998): 77.4 µM (inactive) | GI50 (COLO 205): 20 µM (inactive) | GI50 (T47D): 25.6 µM (inactive) | GI50 (SK-OV-3): 38.4 µM (inactive) | GI50 (EKVX): 55.1 µM (inactive) | GI50 (HOP-62): > 100 µM (inactive) | GI50 (SF-295): 46.2 µM (inactive) | GI50 (NCI/ADR-RES): 32.9 µM (inactive) | GI50 (MDA-MB-231): 38 µM (inactive) | GI50 (OVCAR-3): 25.9 µM (inactive) | GI50 (UO-31): 20.4 µM (inactive) | GI50 (SNB-19): 76.4 µM (inactive) | GI50 (786-0): > 100 µM (inactive) | GI50 (SK-MEL-5): 22.2 µM (inactive) | GI50 (MDA-N): 36.5 µM (inactive) | GI50 (OVCAR-5): > 100 µM (inactive) | GI50 (Malme-3M): 75.3 µM (inactive) | GI50 (A498): 59.6 µM (inactive) | GI50 (SN12C): 50.1 µM (inactive) | GI50 (MCF7): 38.9 µM (inactive) | GI50 (SW-620): 38.6 µM (inactive) | GI50 (TK-10): 28.7 µM (inactive) | GI50 (SNB-75): 46.8 µM (inactive) | GI50 (NCI-H460): 27.2 µM (inactive)

CC[C@@]1(O)C(=O)OCc2c1cc1n(c2=O)Cc2c-1nc1ccccc1c2/C=N\c1ccc(N[C@@H]2c3cc4c(cc3[C@@H](c3cc(OC)c(O)c(OC)c3)[C@H]3C(=O)OC[C@@H]32)OCO4)cc1
GI50 (NCI-H522): 0.0254 µM (active) | GI50 (UACC-257): 0.189 µM (active) | GI50 (K562): 0.0505 µM (active) | GI50 (HCT-116): 0.0208 µM (active) | GI50 (RPMI-8226): 0.0396 µM (active) | GI50 (UACC-62): < 0.01 µM (active) | GI50 (M14): < 0.01 µM (active) | GI50 (A549): 0.0292 µM (active) | GI50 (T47D): < 0.01 µM (active) | GI50 (HOP-62): < 0.01 µM (active) | GI50 (UO-31): 0.0213 µM (active) | GI50 (SNB-19): 0.0257 µM (active) | GI50 (CCRF-CEM): < 0.01 µM (active) | GI50 (U-251): 0.0904 µM (active) | GI50 (LOX IMVI): < 0.01 µM (active) | GI50 (SK-MEL-5): 0.0288 µM (active) | GI50 (SF-539): < 0.01 µM (active) | GI50 (NCI-H23): 0.0118 µM (active) | GI50 (CAKI-1): < 0.01 µM (active)

COc1ccc(Oc2nc3cc(N)cc(N)c3nc2-c2ccccc2)cc1
GI50 (RPMI-8226): 10.5 µM (inactive) | GI50 (HOP-62): 19.2 µM (inactive) | GI50 (Malme-3M): 55.1 µM (inactive)
